Results on one compound are retold here after paper PMC12081876, “Identification of PTGR2 inhibitors as a new therapeutic strategy for diabetes and obesity” (EMBO Molecular Medicine, 2025).

Each structure is given as a SMILES string.

Experiment [1] concerns murine PPARγ Ser273 phosphorylation. The experiment can be described thus: PPARγ Ser273 phosphorylation in adipose tissue of mice. It is filed as in vivo, mouse. The note with it: 40 mg/kg/day, 3 weeks, HFHSD. Here is the method:
The epididymal adipose tissues were obtained and lysed in RIPA buffer supplemented with 1X cOmplete™, EDTA-free Protease Inhibitor Cocktail (cat no.04693132001, Roche) and 1X PhosSTOP™ (cat. no. 4906845001, Roche).
The protein concentrations of tissue lysates were measured by Bradford reagent (cat. no. BP500-0006, Bio-Rad). The protein samples were mixed with 6X sample buffer (0.3 M Tris-HCl, pH 6.8, 0.6 M DTT, 12% SDS, 0.6% Bromophenel blue and 60% glycerol) and heated at 70 °C for 5 min. 30 μg of each sample were separated by 10% SDS-PAGE gel and were transferred to PVDF membrane. The membrane was blocked by 3% BSA in Tris-buffered saline containing 0.1% Tween-20 for 1 h at room temperature and incubated with primary antibody at 4 °C overnight. Primary antibodies include anti-Ser273 phospho-PPARγ (1:1000, cat. no. BS-4888R, Bioss), anti-PPARγ (1:1500, cat. no.16643-1-AP, Proteintech) and anti-GAPDH (1:5000, cat. no. GTX100118, GeneTex). On the next day, the membranes were incubated with the anti-rabbit IgG HRP-secondary antibody (1:10,000, cat. no. GTX213110-01, GeneTex) for 1 h at RT. Immunoblots were developed using the Immobilon Forte Western HRP Substrate (cat. no. WBLUF0500, Lot Number: 231445, Millipore) and exposed by MultiGel-21 (cat. no. MGIS-21-C2, EBL). Protein expression of phospho-PPARγ was analyzed using ImageJ software and normalized against PPARγ and GAPDH.

The target of the next experiment is T1, Myc-DDK-mPPARγ C313A (Mus musculus, UniProt P37238, C313A).
T1 construct: host or cells: HEK293T
The experiment can be described thus: Reciprocal co-immunoprecipitation in HEK293T cells, mPPARγ C313A. The note with it: 15-keto-PGE2 treated. It counts as binding, murine. Here is the method: HEK293T cells were transfected with murin PPARγ (mPPARγ) and mPPARγ C313A plasmids for immunoprecipitation, which are Myc-DDK-tagged (OriGene, USA). […] According to the manufacturer’s protocol, proteins were immunoprecipitated using Anti-FLAG® M2 Magnetic Beads (2.5 mg/ml; cat. no. F1804, Sigma-Aldrich). Subsequently, the eluted proteins were separated by SDS-PAGE and subjected to immunoblot analysis. Following separation by SDS-PAGE, proteins were stained with Coomassie blue and SYPRO-Ruby stain. The protein bands of interest were cut out for in-gel tryptic digestion followed by C18 Zip-Tip clean-up (Millipore, USA). For proteomic shotgun identifications, nanoLC-nanoESI-MS/MS analysis was performed on a nanoAcquity system (Waters, USA) connected to the LTQ Orbitrap Velos hybrid MS (Thermo Electron, USA) equipped with a PicoView nanospray interface (New Objective, USA). Samples were loaded onto a C18 BEH column (75 μm × 25 cm length, 130 Å, 1.7 μm particle size) (Waters, USA) and separated by a segmented gradient form in 60 min from 5% to 40% acetonitrile (with 0.1% formic acid) at a constant flow rate of 300 nL/min with a column temperature of 35 °C. The mass spectrometer was operated in the data-dependent mode. […] Protein identification and modification were analyzed using Mascot Daemon (Matrix Science Inc., Chicago). […]

The subject of experiment [2] is HFHSD-fed obese C57BL6/J mice. The experiment can be described thus: Energy expenditure, food intake and physical activity (indirect calorimetry). It counts as in vivo, mouse. The note with it: 40 mg/kg/day ip, vs vehicle. Here is the method:
Metabolic measurements (food and water intake, locomotor activity, VO2 consumption and VCO2 production) were obtained using the Promethion metabolic phenotyping system (Sable Systems). The mice were housed in the Promethion system with ad libitum access to food and water. Monitoring was performed for 5 days after mice have been acclimatized to the cages for 2 days.
All values were expressed as mean ± S.E.M. All reported sample sizes were biologically independent but not technically repeatedly measured. Skewed data was logarithmized to approximate normal distribution. Comparisons between two separate groups were performed using Student t-tests. Comparisons among multiple groups were conducted using a one-way analysis of variance with post hoc analyses. Statistical analyses were conducted using GraphPad Prism 8.0 and SAS 9. Energy expenditure between genotypes was analyzed using the generalized linear model according to international guidance (Speakman et al, [2013]; Tschöp et al, [2011]). Energy expenditure (expressed as kcal/hr) was regressed on body weight using the command “glm” implemented in STATA 14.0 (Speakman et al, [2013]; Tschöp et al, [2011]). Two-sided p-values < 0.05 were considered statistically significant. The sample size was determined according to our previous experience. There was no exclusion/inclusion criteria, blinding and randomization.

Take `CCCCCC(=O)/C=C/[C@H]1[C@H](O)CC(=O)[C@@H]1C/C=C\CCCC(=O)O` [15-keto-PGE2, 15-keto-prostaglandin E2]: in experiment [1], the “phosphorylation of PPARγ Ser273” value is on record as “dose-dependently reduced phosphorylation of Ser273”. The “co-immunoprecipitation with 15-keto-PGE2-cysteine antibody, mPPARγ C313A” value at Myc-DDK-mPPARγ C313A is “not in samples expressing mPPARγ with C313A mutation”. Besides, the energy expenditure result in experiment [2] (age 8 weeks) is on record as “Higher energy expenditure”. Moreover, in experiment [2], the Food intake entry is “similar” and the physical activity entry is “similar”.
